Source: patent US20260199371A1, “COORDINATION COMPOUND, COMPOSITIONS, AND USES THEREOF FOR TREATING CANCERS” (HUEIYUAN BIOTECH LLC, priority 2023, published 2026)

How the values were obtained:
LoVo-parental cells [1] = system: LoVo-parental cells
LoVo-OXAR cells [2] = system: LoVo-OXAR cells
LoVo-parental cells [3] = details: single agent: compound (II) 500 μg/ml or oxaliplatin 50 μg/ml, 48 hours
LoVo-OXAR cells [4] = details: single agent: compound (II) 2000 μg/ml or oxaliplatin 50 μg/ml, 48 hours
LoVo-parental cells [5] = details: single agent: compound (II) 500 μg/ml or oxaliplatin 50 μg/ml, 72 hours
LoVo-OXAR cells [6] = details: single agent: compound (II) 2000 μg/ml or oxaliplatin 50 μg/ml, 72 hours

SMILES: O=C1[O][Pt]2([NH][C@@H]3CCCC[C@H]3[NH]2)[O]C1=O [oxaliplatin, reference compound]
- viability of LoVo-parental cells under oxaliplatin (LoVo-parental cells [1]; FIG. 2C): decreased the viability of both LoVo-parental and LoVo-OXAR cells in a dose-dependent manner
- IC50 of oxaliplatin in LoVo-parental cells (LoVo-parental cells [1]; MTT assay): about 15.0 μg/ml
- viability of LoVo-OXAR cells under oxaliplatin (LoVo-OXAR cells [2]; FIG. 2C): decreased the viability of both LoVo-parental and LoVo-OXAR cells in a dose-dependent manner
- IC50 of oxaliplatin in LoVo-OXAR cells (LoVo-OXAR cells [2]; MTT assay): about 65 μg/ml
- migration rate of LoVo-parental cells (LoVo-parental cells [3]): significantly decreased
- migration rate of LoVo-OXAR cells (LoVo-OXAR cells [4]): significantly decreased
- invasion rate of LoVo-parental cells (LoVo-parental cells [5]): significantly decreased
- invasion rate of LoVo-OXAR cells (LoVo-OXAR cells [6]): significantly decreased
